# Source: US10517889B2, “Modulators of SMAD7 expression” (Ionis Pharmaceuticals, Inc., priority 2017, dated 2019)
# How the values were obtained:
# [1] = Oligonucleotide concentration in liver and colon by LC-MS/MS after subcutaneous administration in CD-1 mice (Example 6); type: in vivo; conditions: 50 mg/kg subcutaneously twice a week for 7 weeks, 48 hours after the last dose
# Description: Groups of 8-9 week old male CD-1 mice were injected subcutaneously twice a week for 7 weeks with 50 mg/kg of Ionis oligonucleotides (100 mg/kg/week dose). Each group contained 4 mice. One group of male CD-1 mice was injected subcutaneously twice a week for 7 weeks with PBS. Plasma was collected for analysis on day 28.
# Oligonucleotide concentrations in the liver and colon were analyzed using LC-MS/MS method.
# mouse Smad7 mRNA = assay: Pharmacology: mouse Smad7 mRNA expression in liver, kidney, duodenum, ileum and colon after subcutaneous administration in CD-1 mice (Example 6); type: in vivo; conditions: 50 mg/kg subcutaneous twice weekly for 7 weeks, normalized to GAPDH
# Method in brief: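 Male CD-1 mice, 8-9 weeks old, got 50 mg/kg oligonucleotide subcutaneously twice weekly (100 mg/kg/week) for 7 weeks, with PBS controls; n=4 per group. At necropsy, Smad7 mRNA in liver, kidney, duodenum, ileum and colon was measured by RT-PCR (probe set HTS7555), normalized to GAPDH; one-way ANOVA with Dunnett's test.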
# [2] = Blood chemistry markers after oral gavage in CD-1 mice (Example 7); type: in vivo; conditions: 500 mg/kg oral gavage once daily for 4 weeks, day 30
# Description: The objective of this study was to evaluate the tolerability and pharmacodynamics of select Ionis human SMAD7 antisense oligonucleotides in CD-1 mice following 4 weeks of treatment. The mice were administered oligonucleotides by oral gavage.
# (§1) Groups of 7-8 week old male CD-1 mice were given an oral gavage dose once daily for 4 weeks of 500 mg/kg of Ionis SMAD7 oligonucleotides. Each group contained 8 mice. One group of male CD-1 mice was administered saline by oral gavage daily.
# Levels of transaminases, albumin, and BUN were measured using a Toshiba 200FR NEO chemistry analyzer (Toshiba Co., Japan).
# [3] = Body and organ weights after oral gavage in CD-1 mice (Example 7); type: in vivo; conditions: 500 mg/kg oral gavage once daily for 4 weeks, end of study
# Description: as §1
# Final body weights were measured at the end of the study. There was no significant difference in the body weight of the mice treated with antisense oligonucleotide compared to the control.
# None of the Ionis SMAD7 oligonucleotides caused any changes in organ weights outside the expected range for antisense oligonucleotides.
# [4] = Hematology assays after oral gavage in CD-1 mice (Example 7); type: in vivo; set-up: RBC: unit not given here; conditions: 500 mg/kg oral gavage once daily for 4 weeks
# Description: as §1
# Blood obtained from all mouse groups was measured by an ADVIA2120i hematology analyzer (Siemens, USA) for measurements of the various blood cells, as well as other hematology markers. None of the Ionis SMAD7 oligonucleotides caused changes in the levels of any of the hematology markers outside the expected range for antisense oligonucleotides.
# [5] = Hematology assays after subcutaneous administration in beagle dogs (Example 8); type: in vivo; conditions: 30 mg/kg subcutaneous days 1, 3, 5, 8, 15, 22, 29
# Description: There were 4 animals per group.
# Blood samples were collected from the cephalic vein or saphenous vein of each animal. About 0.5 mL of blood samples was put into tubes containing the potassium salt of EDTA. Blood obtained from all dog groups was measured using an ADVIA2120i hematology analyzer for measurements of the various blood cells, as well as other hematology markers.
# [6] = Plasma chemistry markers after subcutaneous administration in beagle dogs (Example 8); conditions: 30 mg/kg subcutaneous days 1, 3, 5, 8, 15, 22, 29, plasma at day 31
# Description: Groups of 24-25 week old male beagle dogs were injected subcutaneously with 30 mg/kg ION Ionis oligonucleotide. There were 4 animals per group. Dogs were injected every two days for the first week (day 1, 3, and 5) and once weekly thereafter (days 8, 15, 22, and 29). A control group of dogs received subcutaneous injections of PBS. Dogs were sacrificed on day 31 approximately 48 hours after the final dose and organs and plasma were harvested for further analysis.
# To evaluate the effect of Ionis SMAD7 oligonucleotides on liver and kidney function, plasma levels of transaminases, albumin, creatine and BUN were measured using an automated clinical chemistry analyzer (Toshiba 200FR Neo chemistry analyzer, Toshiba Co., Japan).
# [7] = system: human peripheral blood mononuclear cells (PBMCs); assay: Human PBMC activation assay, cytokine levels (IL-10, IL-6, MCP-1, TNF-α) in supernatant after 24 hours (Example 9); conditions: human PBMC supernatant after 24 hours
substance,measurement,setting,value
"830121 (AGAATCAAGCCCTGGC; 3-10-3 cEt gapmer, further chemistry not given here) [compound 830121]","Oligonucleotide concentration, Colon",[1],14 μg/g tissue
same,"Oligonucleotide concentration, Liver",[1],50 μg/g tissue
same,"% inhibition of Smad7 mRNA expression (compared to control), Kidney",mouse Smad7 mRNA; kidney,0%
same,"% inhibition of Smad7 mRNA expression (compared to control), Liver",mouse Smad7 mRNA; liver,24%
same,ALT,[2],45 IU/L
same,AST,[2],75 IU/L
same,Albumin,[2],3.3 g/dL
same,BUN,[2],24 mg/dL
same,Bilirubin,[2],0.2 mg/dL
same,Body weight,[3],34 g
same,Heart weight,[3],0.17 g
same,Kidneys weight,[3],0.61 g
same,Liver with gallbladder weight,[3],1.92 g
same,Spleen weight,[3],0.10 g
same,Basophils,[4],0.01 10^3/μL
same,Eosinophils,[4],0.08 10^3/μL
same,Hematocrit,[4],51.8%
same,Hemoglobin,[4],15.1 g/dL
same,Lymphocytes,[4],81.7%
same,MCH,[4],15.0 pg
same,MCHC,[4],29.1 g/dL
same,MCV,[4],51.6 fL
same,Monocytes,[4],0.15 10^3/μL
same,Neutrophils,[4],11.6%
same,RBC,[4],10.0
same,Reticulocytes,[4],3.0%
same,WBC,[4],4.1 10^3/μL
same,platelets,[4],1170 10^3/μL
same,Basophils,[5],0.8%
same,Eosinophils,[5],2.5%
same,Hematocrit,[5],56%
same,Hemoglobin,[5],18.5 g/dL
same,Lymphocytes,[5],30%
same,MCH,[5],21.7 pg
same,MCHC,[5],32.9 g/dL
same,MCV,[5],66 fL
same,Monocytes,[5],7.7%
same,Neutrophils,[5],59%
same,PLT,[5],249 ^3/μL
same,RBC,[5],8.5 ^6/L
same,Reticulocytes,[5],0.5%
same,WBC,[5],8.2 ^3/μL
same,ALT,[6],1454 IU/L
same,AST,[6],383 IU/L
same,Albumin,[6],3.0 g/dL
same,BUN,[6],20.0 mg/dL
same,Bilirubin,[6],2.6 mg/dL
same,Creatine,[6],0.9 mg/dL
same,Levels of IL-6,[7]; 0.0128 μM oligonucleotide,4.1 pg/mL
same,Levels of IL-10,[7]; 0.0128 μM oligonucleotide,2.0 pg/mL
same,Levels of MCP-1,[7]; 0.0128 μM oligonucleotide,324.5 pg/mL
same,Levels of TNF-α,[7]; 0.0128 μM oligonucleotide,3.0 pg/mL
same,Levels of IL-6,[7]; 0.064 μM oligonucleotide,4.9 pg/mL
same,Levels of IL-10,[7]; 0.064 μM oligonucleotide,1.3 pg/mL
same,Levels of MCP-1,[7]; 0.064 μM oligonucleotide,370.4 pg/mL
same,Levels of TNF-α,[7]; 0.064 μM oligonucleotide,3.5 pg/mL
same,Levels of IL-6,[7]; 0.32 μM oligonucleotide,4.4 pg/mL
same,Levels of IL-10,[7]; 0.32 μM oligonucleotide,1.3 pg/mL
same,Levels of MCP-1,[7]; 0.32 μM oligonucleotide,336.4 pg/mL
same,Levels of TNF-α,[7]; 0.32 μM oligonucleotide,3.1 pg/mL
same,Levels of IL-6,[7]; 1.6 μM oligonucleotide,5.4 pg/mL
same,Levels of IL-10,[7]; 1.6 μM oligonucleotide,3.1 pg/mL
same,Levels of MCP-1,[7]; 1.6 μM oligonucleotide,501.8 pg/mL
same,Levels of TNF-α,[7]; 1.6 μM oligonucleotide,3.6 pg/mL
same,Levels of IL-6,[7]; 8 μM oligonucleotide,7.5 pg/mL
same,Levels of IL-10,[7]; 8 μM oligonucleotide,3.7 pg/mL
same,Levels of MCP-1,[7]; 8 μM oligonucleotide,717.1 pg/mL
same,Levels of TNF-α,[7]; 8 μM oligonucleotide,4.8 pg/mL
same,Levels of IL-6,[7]; 40 μM oligonucleotide,14.3 pg/mL
same,Levels of IL-10,[7]; 40 μM oligonucleotide,2.2 pg/mL
same,Levels of MCP-1,[7]; 40 μM oligonucleotide,1225.2 pg/mL
same,Levels of TNF-α,[7]; 40 μM oligonucleotide,9.4 pg/mL
same,Levels of IL-6,[7]; 200 μM oligonucleotide,35.2 pg/mL
same,Levels of IL-10,[7]; 200 μM oligonucleotide,1.4 pg/mL
same,Levels of MCP-1,[7]; 200 μM oligonucleotide,411.0 pg/mL
same,Levels of TNF-α,[7]; 200 μM oligonucleotide,14.2 pg/mL
